According to patent US11518760B2 (Liverpool School of Tropical Medicine, priority 2017, dated 2022):
pEC50: −log10 of the molar value.

How the values were obtained:
[1] = tested on: Wolbachia in adult Brugia malayi; assay: Adult Brugia malayi mouse model, Wolbachia wsp qPCR; format: in vivo
Text: (§1) In an adult Brugia malayi mouse model treatment groups (BALB/c CCR3−/− mice, 6-8 week old) received compounds by oral delivery for 7-28 days beginning at 6-10 weeks post-infection intraperitoneal with Brugia malayi third-stage larvae. Following treatment, at 12 weeks past-infection, adult worms and released microfilariae were recovered from the peritoneal cavity, counted and staged for sex. Genomic DNA was extracted from individual adult worms (10/group) and quantification of the Wolbachia surface protein (wBm-wsp) performed by quantitative PCR.
Treatment dosage unit is mg/kg (MK) and duration stated in days (d). Abbreviations: MIN (minocycline), bid (twice daily), Ms (mesylate). Data in Table 5A are expressed as a reduction in Wolbachia load in comparison to the vehicle control group.
(§2) Table 5B provides a comparison of two stereoisomers in the adult Brugia malayi mouse model above at a range of doses and durations of treatment. Data in Table 5B are expressed as a reduction in Wolbachia load in comparison to the vehicle control group.

[2] = tested on: Brugia malayi microfilariae; assay: Adult Brugia malayi mouse model, microfilaria production; format: in vivo; conditions: Table 5B
Text: as §1, §2

[3] = tested on: Wolbachia of the target parasite, Brugia malayi; assay: In vitro microfilariae (Mf) Brugia malayi screen, wsp/gst qPCR; format: cell-based; conditions: B. malayi Mf, 6 days; concentration stands in the drawing (not visible)
Method: An in vitro microfilariae (Mf) assay was used to screen against Wolbachia of the target parasite, Brugia malayi. The Mf were obtained by peritoneal lavage of gerbils (Meriones unguiculatus) harbouring a patent infection of Brugia malayi as described previously (Griffiths et al., 2010, Lab Animal).
Mf were purified using a PD-10 desalting column (Fisher) followed by centrifugation (1200 rpm for 5 minutes at room temperature) then re-suspended in filter-sterilised culture medium consisting of RPMI supplemented with heat-inactivated Foetal Calf Serum (HI-FCS), 1% Penicillin-Streptomycin and 1% Amphotericin B.
After determining the concentration of Mf, the stock solution was diluted in culture medium to ensure a final concentration of 8000 Mf/well of a 96 well plate (100 μl per well). Compounds to be tested (10 mM stock in 100% DMSO) were diluted to appropriate working concentrations in culture medium and 100 μl was added to the appropriate wells of the 96 well plate containing the Mf. Five replicates were used for each compound and each plate contained doxycycline (5 μM) and vehicle (DMSO) controls. The plates were incubated at 37° C., 5% CO2, for 6 days.
On day 6, a visual assessment of motility was performed and wells scored from 0 to 4 (where 0=no movement and 4=highly motile) in order to assess whether there were any direct effects against the Mf. To perform the anti-Wolbachia readout, DNA was extracted from each individual well using the QIAmp DNA Mini Kit (Qiagen) ‘DNA Purification from Tissues’ protocol.
The number of Wolbachia present in Mf was assessed by quantification of the Wolbachia surface protein (wsp) gene copy number and normalised to the nematode glutathione S-transferase (gst) gene by qPCR based on methods described by McGarry et al., 2004, Mol Biochem Parasitol. DNA samples were amplified in duplicate in the following 20 μl reactions containing 1× QuantiTect SYBR Green PCR master mix (Qiagen): for wsp, 0.3 μM each of forward ([…]) and reverse ([…]) primer, 3 mM MgCl2 and 2 μl of DNA. For gst, 0.35 μM of forward ([…]) and reverse primer (ATCACGGACGCCTTCACAG), 3.5 mM MgCl2 and 1 μl of DNA. qPCR was performed using the Bio-Rad CFX384 C1000 thermal cycler (Bio-Rad laboratories LTD) with a denaturation step of 95° C. for 15 min then 40 cycles at 95° C. for 15 s, 57° C. (gst) or 60° C. (wsp) for 30 s, and 72° C. for 30 s. Quantification was determined by Bio-Rad CFX manager software by comparing the DNA samples to that of a standard curve generated from serial dilution of plasmid DNA of the appropriate gene. Data in Table 3 are expressed as a reduction in Wolbachia load in comparison to the vehicle control group and normalized by positive control (doxycycline at 5 μM).

[4] = tested on: Wolbachia in Brugia malayi larvae; assay: Larval Brugia malayi mouse model, Wolbachia wsp qPCR; format: in vivo; conditions: BALB/c IL4Rα−/− mice, oral; dose/duration stands in the drawing (not visible); larvae recovered 14 days post-infection
Text: In a larval Brugia malayi mouse model treatment groups (BALB/c IL4Rα−/− mice, 6-8 week old) received compounds by oral delivery for 7 to 14 days commencing on the day of intraperitoneal infection with Brugia malayi third-stage larvae. At 14 days post-infection, larvae were recovered from the peritoneal cavity, counted, and length measured. Genomic DNA was extracted from individual worms (10/group) and quantification of the Wolbachia surface protein (wBm-wsp) gene copy numbers performed by quantitative PCR.
Treatment dosage unit is mg/kg (MK) and duration stated in days (d). Abbreviations: DOX (doxycycline), bid (twice daily), Ms (mesylate). Data in Table 4 are expressed as a reduction in Wolbachia load in comparison to the vehicle control group.

[5] = tested on: C6/36 Aedes albopictus cell line infected with Wolbachia pipientis (Wolbachia strain wAlbB); assay: In vitro insect cell line assay (anti-Wolbachia screen, SYTO 11 high content imaging); format: cell-based; conditions: 168 h; C6/36 Aedes albopictus cells infected with Wolbachia pipientis wAlbB, 7 days incubation, SYTO 11 imaging; read-out: In vitro anti-Wolbachia activity
Outline: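 Wolbachia wAlbB-infected C6/36 Aedes albopictus cells were exposed to compounds at a final 5 μM for 7 days at 26 °C, with DMSO-medium wells as untreated controls. Cells were then stained with SYTO 11 for 15 min, imaged by high-content microscopy and scored by texture analysis.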

[6] = Table 5A, BALB/c CCR3−/− mice, oral, dose/duration stands in the drawing (not visible)
[7] = Table 5B, two stereoisomers at a range of doses and durations, dose/duration stands in the drawing (not visible)
[8] = two stereoisomers at a range of doses and durations, dose/duration stands in the drawing (not visible)

For `CC1COCCN1c1nc(NCc2cccnc2C(F)(F)F)c2cccnc2n1` (centres unmarked) [drawing 692], the “% Wolbachia reduction cf median Vehicle” value [1, 6] was 97.8%.

`CN(C)c1ccc(O)c2c1C[C@H]1C[C@H]3[C@H](N(C)C)C(O)=C(C(N)=O)C(=O)[C@@]3(O)C(O)=C1C2=O` [MIN, minocycline, reference compound] was tested, and the “% Wolbachia reduction cf median Vehicle” value ([1]; Table 5A, BALB/c CCR3−/− mice, oral, 25 MK bid + 28 d, worms recovered 12 weeks post-infection) was 83.6%, the “% Wolbachia reduction cf median Vehicle” value ([1]; Table 5B, BALB/c CCR3−/− mice, oral, 25 MK bid + 28 d treatment + 14 d wash-out) was 98.2% and the “% Microfilaria (Mf) production reduction cf median Vehicle” value ([2]; BALB/c CCR3−/− mice, oral, 25 MK bid + 28 d treatment + 14 d wash-out) was 100%.

In the case of `FC(F)(F)c1ncccc1CNc1nc(N2CCC(Cl)CC2)nc2ncccc12` [drawing 687], the “% Reduction level normalised to DOX (5 μm)” value (from here on “% Reduction level normalised”) [3] was 92.9% and the “% Wolbachia reduction cf. DMSO” value [3] was 83.3%.

`FC1CCN(c2nc(NCc3cccnc3C(F)(F)F)c3cccnc3n2)CC1` [drawing 685] was tested, and the “% Reduction level normalised” value [3] was 97.4% and the “% Wolbachia reduction cf. DMSO” value [3] was 87.3%.

For `C[C@@H]1COCCN1c1nc(NCc2cccnc2C(F)(F)F)c2cccnc2n1` [drawing 699], the “% Wolbachia reduction cf median Vehicle” value [1, 7] was 99.6% and the “% Microfilaria (Mf) production reduction cf median Vehicle” value [2, 8] was 100%.

In the case of `CC(C)N(C)c1nc(NCc2cccnc2C(F)(F)F)c2cccnc2n1` [drawing 688], the “% Wolbachia reduction cf median Vehicle” value [4] was 99.99%.

`C[C@@H]1COCCN1c1nc(NCc2cccnc2C(F)(F)F)c2cccnc2n1` [drawing 698] was tested, and the “% Wolbachia reduction cf median Vehicle” value [1, 7] was 99.7% and the “% Microfilaria (Mf) production reduction cf median Vehicle” value [2, 8] was 100%.

With `C[C@H]1COCCN1c1nc(NCc2cccnc2C(F)(F)F)c2cccnc2n1` [drawing 697] the “% Wolbachia reduction cf median Vehicle” value [1, 7] was 97.8% and the “% Microfilaria (Mf) production reduction cf median Vehicle” value [2, 8] was 100%.

In the case of `C[C@H]1COCCN1c1nc(NCc2cccnc2C(F)(F)F)c2cccnc2n1` [drawing 696], the “% Wolbachia reduction cf median Vehicle” value [1, 7] was 99.9% and the “% Microfilaria (Mf) production reduction cf median Vehicle” value [2, 8] was 100%.

In the case of `C[C@@H]1COCCN1c1nc(NCc2cccnc2C(F)(F)F)c2cccnc2n1` [drawing 701], the “% Wolbachia reduction cf median Vehicle” value [1, 7] was 82.2% and the “% Microfilaria (Mf) production reduction cf median Vehicle” value [2, 8] was 91.4%.

In the case of `C[C@H]1COCCN1c1nc(NCc2cccnc2C(F)(F)F)c2cccnc2n1` [drawing 695], the “% Wolbachia reduction cf median Vehicle” value [1, 7] was 99.7% and the “% Microfilaria (Mf) production reduction cf median Vehicle” value [2, 8] was 100%.

In the case of `CC(C)N(C)c1nc(NCc2cccnc2C(F)(F)F)c2cccnc2n1` [drawing 691], the “% Wolbachia reduction cf median Vehicle” value [1, 6] was 99.4%.

For `CC1COCCN1c1nc(NCc2cccnc2C(F)(F)F)c2cccnc2n1` (centres unmarked) [drawing 693], the “% Wolbachia reduction cf median Vehicle” value [1, 6] was 98.8%.

For `CC1COCCN1c1nc(NCc2cccnc2C(F)(F)F)c2cccnc2n1` (centres unmarked) [drawing 689], the “% Wolbachia reduction cf median Vehicle” value [4] was 99.91%.

`C[C@@H]1COCCN1c1nc(NCc2cccnc2C(F)(F)F)c2cccnc2n1` [drawing 700] was tested, and the “% Wolbachia reduction cf median Vehicle” value [1, 7] was 86.8% and the “% Microfilaria (Mf) production reduction cf median Vehicle” value [2, 8] was 100%.

`FC1(F)CCN(c2nc(NCc3cccnc3C(F)(F)F)c3cccnc3n2)CC1` [drawing 690] was tested, and the “% Wolbachia reduction cf median Vehicle” value [4] was 99.84%.

With `CC1COCCN1c1nc(NCc2cccnc2C(F)(F)F)c2cccnc2n1` (centres unmarked) [drawing 684] the “% Reduction level normalised” value [3] was 99.8% and the “% Wolbachia reduction cf. DMSO” value [3] was 89.4%.

For `FC(F)(F)c1ncccc1CNc1nc(N2CCCC2)nc2ncccc12` [Example 174, 2-(pyrrolidin-1-yl)-N-((2-(trifluoromethyl)pyridin-3-yl)methyl)pyrido[2,3-d]pyrimidin-4-amine], the pEC50 [5] was 9.00 to 11.00.

Molecule `CC(=O)c1nc(NCc2ccccc2C(F)(F)F)c2sccc2n1` [Example 87] has a pEC50 [5] of 6.00 to 7.00.

`CC(C)Nc1nc(N2CCOCC2c2ccccc2C(F)(F)F)c2cccnc2n1` (centres unmarked) [Example 187, N-isopropyl-4-(3-(2-(trifluoromethyl)phenyl)morpholino)pyrido[2,3-d]pyrimidin-2-amine] gave a pEC50 [5] of 4.00 to 6.00.

`FCC1CCCN(c2nc(NCc3cccnc3C(F)(F)F)c3cccnc3n2)C1` (centres unmarked) [Example 258, 2-(3-(fluoromethyl)piperidin-1-yl)-N-((2-(trifluoromethyl)pyridin-3-yl)methyl)pyrido[2,3-d]pyrimidin-4-amine] was tested, and the pEC50 [5] was > 11.00.

`CC(C)Nc1nc(NCc2ccc(F)cc2)c2sccc2n1` [Example 15, N^4-(4-fluorobenzyl)-N^2-isopropylthieno[3,2-d]pyrimidine-2,4-diamine] showed a pEC50 [5] of 6.00 to 7.00.

`FC1(F)CCN(c2nc(NCc3cccnc3C(F)(F)F)c3cccnc3n2)CC1` [drawing 686] was tested, and the “% Reduction level normalised” value [3] was 98.2% and the “% Wolbachia reduction cf. DMSO” value [3] was 88.0%.

In the case of `C[C@H]1COCCN1c1nc(NCc2cccnc2C(F)(F)F)c2cccnc2n1` [drawing 694], the “% Wolbachia reduction cf median Vehicle” value [1, 6] was 98.5%.

For `FC(F)O[C@@H]1CCN(c2nc(NCc3cccnc3C(F)(F)F)c3cccnc3n2)C1` [Example 280, (R)-2-(3-(difluoromethoxy)pyrrolidin-1-yl)-N-((2-(trifluoromethyl)pyridin-3-yl)methyl)pyrido[2,3-d]pyrimidin-4-amine], the pEC50 [5] was 9.00 to 11.00.

`CNCc1nc(NCc2ccccc2C(F)(F)F)c2cccnc2n1` [Example 145, 2-((methylamino)methyl)-N-(2-(trifluoromethyl)benzyl)pyrido[2,3-d]pyrimidin-4-amine] showed a pEC50 [5] of 4.00 to 6.00.

In the case of `CC(Nc1ncnc2cc(I)sc12)c1ccccc1C(F)(F)F` (centres unmarked) [Example 96, 6-iodo-N-(1-(2-(trifluoromethyl)phenyl)ethyl)thieno[3,2-d]pyrimidin-4-amine], the pEC50 [5] was 4.00 to 6.00.

Molecule `CC(C)Nc1nc(NCc2ccccc2F)c2sccc2n1` [Example 11] has a pEC50 [5] of 6.00 to 7.00.

For `N#Cc1nc(NCc2ccccc2C(F)(F)F)c2sccc2n1` [Example 80], the pEC50 [5] was 7.00 to 8.00.

Molecule `COc1ccc2c(NCc3cccnc3C(F)(F)F)nc(N3CCOCC3C)nc2n1` (centres unmarked) [Example 305, 7-methoxy-2-(3-methylmorpholino)-N-((2-(trifluoromethyl)pyridin-3-yl)methyl)pyrido[2,3-d]pyrimidin-4-amine] has a pEC50 [5] of 4.00 to 6.00.

`FC1(F)CCN(Cc2nc(NCc3cccnc3C(F)(F)F)c3cccnc3n2)C1` [Example 230, 2-((3,3-difluoropyrrolidin-1-yl)methyl)-N-((2-(trifluoromethyl)pyridin-3-yl)methyl)pyrido[2,3-d]pyrimidin-4-amine] showed a pEC50 [5] of 4.00 to 6.00.
